The source of these data is patent US20020016279A1, “Enzymatic oxidation composition and process” (Unilever Home & Personal Care USA, Division of Conopco, Inc., priority 2000, published 2002).

Counter-ions that a name gives are not always drawn.

The assay in a line: Stain bleach performance of the peroxidase/enhancer system on tomato stains (wash test, no hydrogen peroxide added). The method, then: The potential of the enzymatic bleach system, consisting of a peroxidase enzyme and an enhancer, to bleach stains was assessed by washing cotton swatches soiled with tomato stains. The experiments were performed in 1 l beakers, to which 800 ml of wash solution were added. […]
The swatches were washed during 30 minutes at 30° C. After the wash, the swatches were tumble-dried and the reflectance spectra were measured using a Minolta spectrometer. The color differences between the swatch before and after the wash data were expressed in the CIELAB L*a*b* color space. In this color space, L* indicates lightness and a* and b* are the chromaticity coordinates. Color differences between two swatches are expressed as ΔE, which is calculated from the following equation:
ΔE={square root}{square root over (ΔL^2+Δa^2+Δb^2)}

Where [1] appears, read: cotton swatches soiled with tomato stains, enhancer 250 μM, peroxidase from Arthromyces ramosus 50 μg/l, wash solution 2 g/l, pH 10.5, 30 minutes at 30° C, no enhancer: 6.5.

Regarding `O=C(NNc1ccccc1)c1ccccc1` [2′-phenylbenzohydrazide], the ΔE under setting [1] is reported as 7.4.
As to `Nc1ccc(S(=O)(=O)NNC(=O)C(=O)NNc2ccccc2)cc1` [Ethanedioic acid, 2-[(4-aminophenyl)sulfonyl]-hydrazide-2-phenylhydrazide], the ΔE (Example 2, enhancer 50 μM, peroxidase 5 mg/l, tomato stains, peroxidase without enhancer 7.7) stood at 8.3; the ΔE (Example 2, enhancer 100 μM, peroxidase 5 mg/l, tomato stains, peroxidase without enhancer 7.7) is 9.0; the ΔE (Example 2, enhancer 200 μM, peroxidase 5 mg/l, tomato stains, peroxidase without enhancer 7.7) came out at 9.6; the ΔE (Example 2, enhancer 200 μM, peroxidase None, tomato stains, None/None control 7.5) was determined as 7.4; the ΔE under setting [1] was 8.1.
With `CCOC(=O)C(=O)NNc1cccc(Cl)c1` [Ethyl [2-(3-chlorophenyl)]hydrazide oxalate], the ΔE under setting [1] worked out at 7.8.
`COC(=O)C(=O)NNc1ccccc1` [Methyl [2-phenyl]hydrazide oxalate]: the ΔE under setting [1] was determined as 9.8.
For the molecule `CCCOC(=O)C(=O)NNc1ccccc1` [Propyl [2-phenyl]hydrazide oxalate], under setting [1], the ΔE came to 9.8.
